According to PMC11078990, “Identification and characterization of small molecule inhibitors of the LINE-1 retrotransposon endonuclease” (Nature Communications, 2024):
Where “and” joins values, the source holds several entries; their conditions need not be identical. Equal values may be shown once.

Test system: L1 retrotransposition
Test: HeLa dual-luciferase L1 retrotransposition assay
Assay type: cell-based, human
Settings: HeLa cells

| SMILES | Effect on L1 retrotransposition |
| --- | --- |
| O=C(Nc1ccc(S(=O)(=O)NCc2ccco2)cc1)c1cc(NS(=O)(=O)c2cccs2)cc(NS(=O)(=O)c2cccs2)c1 [AD18] | did not significantly impact retrotransposition |

Test system: substrate oligonucleotide used in the EN activity assay
Test: not given
Assay type: binding
Parameters: key to Binding Detected? (Y/N): Binding Detected? (Y/N); Binding Detected? (Y/N)
Settings: not given

| SMILES | Binding Detected? (Y/N) |
| --- | --- |
| Cc1cc(O[C@H](C)C(=O)NC[C@H]2CC[C@H](C(=O)O)CC2)c2c3c(c(=O)oc2c1)CCC3 [AD50] | N |
| O=C(Nc1ccc(S(=O)(=O)NCc2ccco2)cc1)c1cc(NS(=O)(=O)c2cccs2)cc(NS(=O)(=O)c2cccs2)c1 [AD18] | N |

Target: T1, APE1 (Homo sapiens, UniProt P27695)
T1 construct: purchased New England Biolabs (NEB) M0282S
Test: APE1 fluorescent oligonucleotide activity assay (abasic site substrate)
Assay type: biochemical
Settings: compound at 25 μM; Replicate 1

| SMILES | APE1 percent activity, Replicate 1 |
| --- | --- |
| Cc1cc(O[C@H](C)C(=O)NC[C@H]2CC[C@H](C(=O)O)CC2)c2c3c(c(=O)oc2c1)CCC3 [AD50] | 117.885% |
| O=C(Nc1ccc(S(=O)(=O)NCc2ccco2)cc1)c1cc(NS(=O)(=O)c2cccs2)cc(NS(=O)(=O)c2cccs2)c1 [AD18] | 95.6087% |

Same assay, conditions: compound at 25 μM; Replicate 2

| SMILES | APE1 percent activity, Replicate 2 |
| --- | --- |
| Cc1cc(O[C@H](C)C(=O)NC[C@H]2CC[C@H](C(=O)O)CC2)c2c3c(c(=O)oc2c1)CCC3 [AD50] | 112.48% |
| O=C(Nc1ccc(S(=O)(=O)NCc2ccco2)cc1)c1cc(NS(=O)(=O)c2cccs2)cc(NS(=O)(=O)c2cccs2)c1 [AD18] | 100.395% |

Same assay, conditions: compound at 25 μM; Replicate 3

| SMILES | APE1 percent activity, Replicate 3 |
| --- | --- |
| Cc1cc(O[C@H](C)C(=O)NC[C@H]2CC[C@H](C(=O)O)CC2)c2c3c(c(=O)oc2c1)CCC3 [AD50] | 116.717% |
| O=C(Nc1ccc(S(=O)(=O)NCc2ccco2)cc1)c1cc(NS(=O)(=O)c2cccs2)cc(NS(=O)(=O)c2cccs2)c1 [AD18] | 113.415% |

Same assay, conditions: compound at 25 μM; average of 3 replicates

| SMILES | APE1 percent activity, average |
| --- | --- |
| Cc1cc(O[C@H](C)C(=O)NC[C@H]2CC[C@H](C(=O)O)CC2)c2c3c(c(=O)oc2c1)CCC3 [AD50] | 115.694% |
| O=C(Nc1ccc(S(=O)(=O)NCc2ccco2)cc1)c1cc(NS(=O)(=O)c2cccs2)cc(NS(=O)(=O)c2cccs2)c1 [AD18] | 103.14% |

Same assay, conditions: inhibitors at 25 μM; relative to 0 μM inhibitor control; mean ± s.d., 3 independent experiments; read-out: APE1 activity (%)

| SMILES | activity at 25 µM |
| --- | --- |
| Cc1cc(O[C@H](C)C(=O)NC[C@H]2CC[C@H](C(=O)O)CC2)c2c3c(c(=O)oc2c1)CCC3 [AD50] | 116 ± 2.8% |
| O=C(Nc1ccc(S(=O)(=O)NCc2ccco2)cc1)c1cc(NS(=O)(=O)c2cccs2)cc(NS(=O)(=O)c2cccs2)c1 [AD18] | 103 ± 9.2% |

Target: L1 EN (LINE-1 retrotransposon endonuclease domain) (Homo sapiens, UniProt O00370, N5T)
Sequence (O00370 1-239 N5T): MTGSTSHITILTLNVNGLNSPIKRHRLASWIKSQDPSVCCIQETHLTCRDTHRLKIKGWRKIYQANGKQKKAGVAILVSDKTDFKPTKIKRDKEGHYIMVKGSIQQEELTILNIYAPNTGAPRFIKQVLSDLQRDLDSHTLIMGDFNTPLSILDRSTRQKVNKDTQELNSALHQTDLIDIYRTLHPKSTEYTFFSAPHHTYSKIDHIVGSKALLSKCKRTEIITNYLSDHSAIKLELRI
Test: Fluorescent oligonucleotide EN nicking activity assay
Assay type: biochemical
Settings: [Inhibitor] 1 μM; technical replicates 1-3, Fig. 2b source data; 1 µM

| SMILES | EN activity, percent of no inhibitor control |
| --- | --- |
| O=C(Nc1ccc(S(=O)(=O)NCc2ccco2)cc1)c1cc(NS(=O)(=O)c2cccs2)cc(NS(=O)(=O)c2cccs2)c1 [AD18] | 113.77% and 114.319% |

Same assay, conditions: [Inhibitor] 1 μM; technical replicates 1-3, Fig. 2b source data; read-out: EN activity, percent of no inhibitor control

| SMILES | remaining activity at 1 µM |
| --- | --- |
| O=C(Nc1ccc(S(=O)(=O)NCc2ccco2)cc1)c1cc(NS(=O)(=O)c2cccs2)cc(NS(=O)(=O)c2cccs2)c1 [AD18] | 128% |

Same assay, conditions: [Inhibitor] 5 μM; technical replicates 1-3, Fig. 2b source data; 5 µM

| SMILES | EN activity, percent of no inhibitor control |
| --- | --- |
| O=C(Nc1ccc(S(=O)(=O)NCc2ccco2)cc1)c1cc(NS(=O)(=O)c2cccs2)cc(NS(=O)(=O)c2cccs2)c1 [AD18] | 110.276% and 111.074% |

Same assay, conditions: [Inhibitor] 5 μM; technical replicates 1-3, Fig. 2b source data; read-out: EN activity, percent of no inhibitor control

| SMILES | remaining activity at 5 µM |
| --- | --- |
| O=C(Nc1ccc(S(=O)(=O)NCc2ccco2)cc1)c1cc(NS(=O)(=O)c2cccs2)cc(NS(=O)(=O)c2cccs2)c1 [AD18] | 98.7% |

Same assay, conditions: [Inhibitor] 10 μM; technical replicates 1-3, Fig. 2b source data; 10 µM

| SMILES | EN activity, percent of no inhibitor control |
| --- | --- |
| Cc1cc(O[C@H](C)C(=O)NC[C@H]2CC[C@H](C(=O)O)CC2)c2c3c(c(=O)oc2c1)CCC3 [AD50] | 88.1732% and 95.3255% |
| O=C(Nc1ccc(S(=O)(=O)NCc2ccco2)cc1)c1cc(NS(=O)(=O)c2cccs2)cc(NS(=O)(=O)c2cccs2)c1 [AD18] | 114.402% and 118.423% |

Same assay, conditions: [Inhibitor] 10 μM; technical replicates 1-3, Fig. 2b source data; read-out: EN activity, percent of no inhibitor control

| SMILES | remaining activity at 10 µM |
| --- | --- |
| Cc1cc(O[C@H](C)C(=O)NC[C@H]2CC[C@H](C(=O)O)CC2)c2c3c(c(=O)oc2c1)CCC3 [AD50] | 89.8% |
| O=C(Nc1ccc(S(=O)(=O)NCc2ccco2)cc1)c1cc(NS(=O)(=O)c2cccs2)cc(NS(=O)(=O)c2cccs2)c1 [AD18] | 107% |

Same assay, conditions: [Inhibitor] 25 μM; technical replicates 1-3, Fig. 2b source data; 25 µM

| SMILES | EN activity, percent of no inhibitor control |
| --- | --- |
| Cc1cc(O[C@H](C)C(=O)NC[C@H]2CC[C@H](C(=O)O)CC2)c2c3c(c(=O)oc2c1)CCC3 [AD50] | 105.309% and 98.5437% and 118.945% |
| O=C(Nc1ccc(S(=O)(=O)NCc2ccco2)cc1)c1cc(NS(=O)(=O)c2cccs2)cc(NS(=O)(=O)c2cccs2)c1 [AD18] | 99.7158% and 102.855% |

Same assay, conditions: [Inhibitor] 25 μM; technical replicates 1-3, Fig. 2b source data; read-out: EN activity, percent of no inhibitor control

| SMILES | remaining activity at 25 µM |
| --- | --- |
| O=C(Nc1ccc(S(=O)(=O)NCc2ccco2)cc1)c1cc(NS(=O)(=O)c2cccs2)cc(NS(=O)(=O)c2cccs2)c1 [AD18] | 118% |

Same assay, conditions: [Inhibitor] 50 μM; technical replicates 1-3, Fig. 2b source data; 50 µM

| SMILES | EN activity, percent of no inhibitor control |
| --- | --- |
| Cc1cc(O[C@H](C)C(=O)NC[C@H]2CC[C@H](C(=O)O)CC2)c2c3c(c(=O)oc2c1)CCC3 [AD50] | 102.098% and 94.5993% |
| O=C(Nc1ccc(S(=O)(=O)NCc2ccco2)cc1)c1cc(NS(=O)(=O)c2cccs2)cc(NS(=O)(=O)c2cccs2)c1 [AD18] | 87.6677% and 95.4608% |

Same assay, conditions: [Inhibitor] 50 μM; technical replicates 1-3, Fig. 2b source data; read-out: EN activity, percent of no inhibitor control

| SMILES | remaining activity at 50 µM |
| --- | --- |
| Cc1cc(O[C@H](C)C(=O)NC[C@H]2CC[C@H](C(=O)O)CC2)c2c3c(c(=O)oc2c1)CCC3 [AD50] | 99.1% |
| O=C(Nc1ccc(S(=O)(=O)NCc2ccco2)cc1)c1cc(NS(=O)(=O)c2cccs2)cc(NS(=O)(=O)c2cccs2)c1 [AD18] | 82% |

Same assay, conditions: [Inhibitor] 100 μM; technical replicates 1-3, Fig. 2b source data; 100 µM

| SMILES | EN activity, percent of no inhibitor control |
| --- | --- |
| Cc1cc(O[C@H](C)C(=O)NC[C@H]2CC[C@H](C(=O)O)CC2)c2c3c(c(=O)oc2c1)CCC3 [AD50] | 99.5828% and 92.7301% |
| O=C(Nc1ccc(S(=O)(=O)NCc2ccco2)cc1)c1cc(NS(=O)(=O)c2cccs2)cc(NS(=O)(=O)c2cccs2)c1 [AD18] | 45.2675% and 31.8714% |

Same assay, conditions: [Inhibitor] 100 μM; technical replicates 1-3, Fig. 2b source data; read-out: EN activity, percent of no inhibitor control

| SMILES | remaining activity at 100 µM |
| --- | --- |
| Cc1cc(O[C@H](C)C(=O)NC[C@H]2CC[C@H](C(=O)O)CC2)c2c3c(c(=O)oc2c1)CCC3 [AD50] | 105% |
| O=C(Nc1ccc(S(=O)(=O)NCc2ccco2)cc1)c1cc(NS(=O)(=O)c2cccs2)cc(NS(=O)(=O)c2cccs2)c1 [AD18] | 46.3% |

Same assay, conditions: [Inhibitor] 250 μM; technical replicates 1-3, Fig. 2b source data; 250 µM

| SMILES | EN activity, percent of no inhibitor control |
| --- | --- |
| Cc1cc(O[C@H](C)C(=O)NC[C@H]2CC[C@H](C(=O)O)CC2)c2c3c(c(=O)oc2c1)CCC3 [AD50] | 85.2034% and 69.8502% |
| O=C(Nc1ccc(S(=O)(=O)NCc2ccco2)cc1)c1cc(NS(=O)(=O)c2cccs2)cc(NS(=O)(=O)c2cccs2)c1 [AD18] | -2.192% and 4.074% and 1.188% |

Same assay, conditions: [Inhibitor] 250 μM; technical replicates 1-3, Fig. 2b source data; read-out: EN activity, percent of no inhibitor control

| SMILES | remaining activity at 250 µM |
| --- | --- |
| Cc1cc(O[C@H](C)C(=O)NC[C@H]2CC[C@H](C(=O)O)CC2)c2c3c(c(=O)oc2c1)CCC3 [AD50] | 78.9% |

Same assay, conditions: [Inhibitor] 500 μM; technical replicates 1-3, Fig. 2b source data; 500 µM

| SMILES | EN activity, percent of no inhibitor control |
| --- | --- |
| Cc1cc(O[C@H](C)C(=O)NC[C@H]2CC[C@H](C(=O)O)CC2)c2c3c(c(=O)oc2c1)CCC3 [AD50] | 1.6976% and 1.409% |
| O=C(Nc1ccc(S(=O)(=O)NCc2ccco2)cc1)c1cc(NS(=O)(=O)c2cccs2)cc(NS(=O)(=O)c2cccs2)c1 [AD18] | 1.364% and -0.7511% and -2.792% |

Same assay, conditions: [Inhibitor] 500 μM; technical replicates 1-3, Fig. 2b source data; read-out: EN activity, percent of no inhibitor control

| SMILES | remaining activity at 500 µM |
| --- | --- |
| Cc1cc(O[C@H](C)C(=O)NC[C@H]2CC[C@H](C(=O)O)CC2)c2c3c(c(=O)oc2c1)CCC3 [AD50] | 1.24% |

Same assay, conditions: [Inhibitor] 1000 μM; technical replicates 1-3, Fig. 2b source data; 1000 µM

| SMILES | EN activity, percent of no inhibitor control |
| --- | --- |
| Cc1cc(O[C@H](C)C(=O)NC[C@H]2CC[C@H](C(=O)O)CC2)c2c3c(c(=O)oc2c1)CCC3 [AD50] | 0.8764% and -0.04895% and -0.3009% |
| O=C(Nc1ccc(S(=O)(=O)NCc2ccco2)cc1)c1cc(NS(=O)(=O)c2cccs2)cc(NS(=O)(=O)c2cccs2)c1 [AD18] | 4.465% and 5.692% |

Same assay, conditions: [Inhibitor] 1000 μM; technical replicates 1-3, Fig. 2b source data; read-out: EN activity, percent of no inhibitor control

| SMILES | remaining activity at 1000 µM |
| --- | --- |
| O=C(Nc1ccc(S(=O)(=O)NCc2ccco2)cc1)c1cc(NS(=O)(=O)c2cccs2)cc(NS(=O)(=O)c2cccs2)c1 [AD18] | 3.32% |

Same assay, conditions: [Inhibitor] 2500 μM; technical replicates 1-3, Fig. 2b source data; 2500 µM

| SMILES | EN activity, percent of no inhibitor control |
| --- | --- |
| Cc1cc(O[C@H](C)C(=O)NC[C@H]2CC[C@H](C(=O)O)CC2)c2c3c(c(=O)oc2c1)CCC3 [AD50] | 1.256% and 0.4525% and 1.333% |
